In this test the target is T1, ABHD17B (Homo sapiens, UniProt Q5VST6).
T1 construct: hABHD17B recombinantly expressed in HEK293T cells (membrane proteome)
T1 sequence (Q5VST6 1-288): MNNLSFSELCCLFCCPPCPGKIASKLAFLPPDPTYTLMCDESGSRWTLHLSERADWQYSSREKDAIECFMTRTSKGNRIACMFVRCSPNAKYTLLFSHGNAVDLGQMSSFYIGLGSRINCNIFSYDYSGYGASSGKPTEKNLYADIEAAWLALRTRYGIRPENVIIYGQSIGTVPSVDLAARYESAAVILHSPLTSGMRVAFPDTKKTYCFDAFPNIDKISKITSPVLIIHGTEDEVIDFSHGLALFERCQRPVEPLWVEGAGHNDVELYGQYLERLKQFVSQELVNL
Briefly: competitive gel-based ABPP with FP-Rh in transfected HEK293T membrane proteome. Format: biochemical.

ABD778 yielded an IC50 of 76 nM.

By IC50 is commonly meant the concentration that inhibits the measured activity by half. The low end stands for inhibition by little substance, the high end for a need for much substance.

The record behind these values is article doi:10.1101/2025.03.20.644389, “In vivo validation of the palmitoylation cycle as a therapeutic target in NRAS-mutant cancer” (bioRxiv, 2025).
